Test results from patent EP4818172A1, “ASCORBIC ACID DERIVATIVES AND COSMETIC CONTAINING SAME” (Seiwa Kasei Co., Ltd., priority 2023, dated 2025).

Legend:
[1] = tested on: Normal human dermal fibroblasts (NHDF); experiment: Hyaluronic acid production promoting effect (ELISA of supernatant); assay type: cell-based; conditions: sample at 10 mM or less in serum-free D-MEM, cultured 48 hours, % of control group (100%), N=3
Experimental: Normal human dermal fibroblasts (NHDF) were prepared in D-MEM containing 5% (v/v) fetal bovine serum to a cell density of 2.5 × 10^4 cells/well, and then pre-incubated on a 96-well plate for 24 hours. After removing the medium, samples prepared in serum-free D-MEM were added to each well and cultured for 48 hours. After the culture was completed, the amount of hyaluronic acid in the supernatant was quantified by ELISA. Measurements were performed in triplicate (N=3).
(§1) The amount of hyaluronic acid produced when the sample was measured at a concentration of 10 mM or less was compared with that of the control group, and the results (% values when the control group is set to 100%) are shown in Tables 18 to 20 based on the following criteria. • <100%: ± • 100-120%: + • 120%<: ++ [Table 18]

[2] = Stability test -1: odor and coloration scored by 10 panelists; assay type: physicochemical; conditions: Test Example 1, aqueous solution, total score of 10 panelists
Experimental: (§2) For each of the samples of Synthesis Examples 1 to 6, 1% aqueous solutions were adjusted to pH 3, 5, 7, 8, and 9 with a dilute potassium hydroxide aqueous solution, and then placed in 50 mL screw tubes and • 2: Color changes compared to immediately after preparation. • 1: Strongly colored compared to immediately after preparation. Based on the results of the above evaluation, the following classification was made: • ○: Total score of 10 panelists is 25 or more • △: Total score of 10 panelists is 16-24 • ×: The total score of 10 panelists is 15 or less [Table 10]

[3] = Stability test -1: residual rate of 1% aqueous solutions at pH 3 to 9 on storage; assay type: physicochemical; conditions: for Residual Rate After 2 weeks / Residual Rate After 4 weeks: 1% aqueous solution
[4] = Stability test -2: residual rate in cream of pH 7 or 9 stored at 50°C; assay type: physicochemical; conditions: cream with 4.0 W/W% derivative
Experimental: (§3) For each of the samples of Synthesis Examples 9 to 32, (a) and (b) shown in Table 12 were each heated and mixed. After cooling, (c) shown in Table 12 was added to prepare a cream with a pH of 7 or 9. The sample was stored at 50°C for 4 weeks, and the residual rate was determined in the same manner as in Test Example 1 and evaluated according to the criteria described below. The odor and coloration were also evaluated according to the same method and criteria as in Test Example 1. The results regarding the residual rate are shown in Tables 13 and 14, and the results regarding the odor and coloration are shown in Tables 15 and 16.
• ⊚: 95% or more • ○: 85% or more, less than 95% • ×: Less than 85% [Table 12]

[5] = tested on: Normal human dermal fibroblasts; experiment: Collagen production promoting effect (ELISA of free collagen in supernatant); assay type: cell-based; conditions: sample at 10 mM or less, cultured 48 hours, % of control group (100%), N=3
Experimental: Normal human dermal fibroblasts were prepared in D-MEM containing 5% (v/v) fetal bovine serum to a cell density of 2.5 × 10^4 cell s /well, and then pre-incubated for 24 hours on a 96-well plate. After removing the medium, samples prepared to a predetermined concentration in D-MEM containing 5% (v/v) fetal bovine serum were added to each well and cultured for 48 hours. After the culture was completed, the amount of free collagen in the supernatant was quantified by ELISA. Measurements were performed in triplicate (N=3).
as §1, with “collagen” for “hyaluronic acid”, “was” for “is”, “Table 17” for “Tables 18 to 20”, “100-140%:” for “100-120%:”, “140%<:” for “120%<:”, “17]” for “18]”

[6] = Stability test -2: odor and coloration of cream stored at 50°C; assay type: physicochemical; conditions: Test Example 2, cream stored at 50°C, total score of 10 panelists
Experimental: as §2, §3

Compound	Hyaluronic acid production-promoting effect [1]	Residual Rate After 2 weeks ([4]; pH7, stored at 50°C)	Residual Rate After 4 weeks ([4]; pH7, stored at 50°C)	Residual Rate After 2 weeks ([4]; pH9, stored at 50°C)	Residual Rate After 4 weeks ([4]; pH9, stored at 50°C)	Collagen production-promoting effect [5]	Coloration After 2 weeks [6]	Odor After 2 weeks [6]	Coloration After 4 weeks [6]	Odor After 4 weeks [6]	also measured
O=C1O[C@H]([C@@H](O)CO)C(O)=C1O [Ascorbic acid]	± (<100%)										Coloration After 2 weeks [2]: Δ; Odor After 2 weeks [2]: Δ; Coloration After 4 weeks [2]: × (The total score of 10 panelists is 15 or less); Odor After 4 weeks [2]: × (The total score of 10 panelists is 15 or less); Residual Rate After 2 weeks ([3]; pH3, stored at 50°C): ○; Residual Rate After 4 weeks ([3]; pH3, stored at 50°C): Δ; Residual Rate After 2 weeks ([3]; pH5, stored at 50°C): ○; Residual Rate After 4 weeks ([3]; pH5, stored at 50°C): ×; Residual Rate After 2 weeks ([3]; pH7, stored at 50°C): ×; Residual Rate After 4 weeks ([3]; pH7, stored at 50°C): ×; Residual Rate After 2 weeks ([3]; pH8, stored at 50°C): ×; Residual Rate After 4 weeks ([3]; pH8, stored at 50°C): ×; Residual Rate After 2 weeks ([3]; pH9, stored at 50°C): ×; Residual Rate After 4 weeks ([3]; pH9, stored at 50°C): ×; residual rate ([3]; Test Example 1, pH 7 to 9, stored at 50°C, after two weeks): less than 30%
CCCCCCCCCCCCCCCC(=O)OCC(OC(=O)CCCCCCCCCCCCCCC)C1OC(=O)C2=C1OCCCO2 (stereo not shown) [Synthesis Example 27, 5,6-O-dipalmitoyl-2,3-O-(1,3-propanediyl) ascorbic acid]	++ (120%<)	⊚ (95% or more)	⊚ (95% or more)	⊚ (95% or more)	⊚ (95% or more)	++ (140%<)	○ (Total score of 10 panelists is 25 or more)	○ (Total score of 10 panelists is 25 or more)	Δ	Δ	
CCCC(=O)OCC(OC(=O)CCC)C1OC(=O)C2=C1OCCCO2 (stereo not shown) [synthesis example 21, 5,6-O-dibutanoyl-2,3-O-(1,3-propanediyl) ascorbic acid]	++ (120%<)	⊚ (95% or more)	⊚ (95% or more)	⊚ (95% or more)	⊚ (95% or more)	++ (140%<)	○ (Total score of 10 panelists is 25 or more)	○ (Total score of 10 panelists is 25 or more)	○ (Total score of 10 panelists is 25 or more)	Δ	
CCCCCCCCCCCCCCCC(=O)OCC(O)C1OC(=O)C2=C1OCCCO2 (stereo not shown) [synthesis example 26, 6-O-palmitoyl-2,3-O-(1,3-propanediyl) ascorbic acid]	++ (120%<)	⊚ (95% or more)	⊚ (95% or more)	⊚ (95% or more)	○ (85% or more, less than 95%)		○ (Total score of 10 panelists is 25 or more)	○ (Total score of 10 panelists is 25 or more)	Δ	Δ	
CC(C)CCCCCCCCCCCCCCC(=O)OCC(OC(=O)CCCCCCCCCCCCCCC(C)C)C1OC(=O)C2=C1OCCCO2 (stereo not shown) [synthesis example 29, 5,6-O-diisostearoyl-2,3-O-(1,3-propanediyl) ascorbic acid]	+ (100-120%)	⊚ (95% or more)	⊚ (95% or more)	⊚ (95% or more)	⊚ (95% or more)	++ (140%<)	○ (Total score of 10 panelists is 25 or more)	○ (Total score of 10 panelists is 25 or more)	○ (Total score of 10 panelists is 25 or more)	Δ	
CC(C)CCCCCCCCCCCCCCC(=O)OCC(O)C1OC(=O)C2=C1OCCO2 (stereo not shown) [synthesis example 31, 6-O-isostearoyl-2,3-O-(1,2-ethanediyl) ascorbic acid]	++ (120%<)	⊚ (95% or more)	⊚ (95% or more)	⊚ (95% or more)	⊚ (95% or more)		○ (Total score of 10 panelists is 25 or more)	○ (Total score of 10 panelists is 25 or more)	○ (Total score of 10 panelists is 25 or more)	Δ	
CCCCCCCC(=O)OCC(OC(=O)CCCCCCC)C1OC(=O)C2=C1OCCCCO2 (stereo not shown) [synthetic example 12, 5,6-O-dioctanoyl-2,3-O-(1,4-butanediyl) ascorbic acid]	++ (120%<)	⊚ (95% or more)	⊚ (95% or more)	⊚ (95% or more)	⊚ (95% or more)	++ (140%<)	○ (Total score of 10 panelists is 25 or more)	○ (Total score of 10 panelists is 25 or more)	○ (Total score of 10 panelists is 25 or more)	Δ	
CCCCCCCCCCCCCCCC(=O)OCC(OC(=O)CCCCCCCCCCCCCCC)C1OC(=O)C2=C1OCCCCO2 (stereo not shown) [synthetic example 16, 5,6-O-dipalmitoyl-2,3-O-(1,4-butanediyl) ascorbic acid]	++ (120%<)	⊚ (95% or more)	⊚ (95% or more)	⊚ (95% or more)	⊚ (95% or more)		○ (Total score of 10 panelists is 25 or more)	○ (Total score of 10 panelists is 25 or more)	○ (Total score of 10 panelists is 25 or more)	Δ	
CC(C)CCCCCCCCCCCCCCC(=O)OCC(O)C1OC(=O)C2=C1OCCCO2 (stereo not shown) [synthetic example 28, 6-O-isostearoyl-2,3-O-(1,3-propanediyl) ascorbic acid]	++ (120%<)	⊚ (95% or more)	⊚ (95% or more)	⊚ (95% or more)	⊚ (95% or more)		○ (Total score of 10 panelists is 25 or more)	○ (Total score of 10 panelists is 25 or more)	○ (Total score of 10 panelists is 25 or more)	Δ	
Bisglyceryl ascorbic acid [reference compound]											Coloration After 2 weeks [2]: Δ; Odor After 2 weeks [2]: Δ; Coloration After 4 weeks [2]: Δ; Odor After 4 weeks [2]: Δ; Residual Rate After 2 weeks ([3]; pH3, stored at 50°C): ⊚; Residual Rate After 4 weeks ([3]; pH3, stored at 50°C): ⊚; Residual Rate After 2 weeks ([3]; pH5, stored at 50°C): ⊚; Residual Rate After 4 weeks ([3]; pH5, stored at 50°C): ⊚; Residual Rate After 2 weeks ([3]; pH7, stored at 50°C): ×; Residual Rate After 4 weeks ([3]; pH7, stored at 50°C): ×; Residual Rate After 2 weeks ([3]; pH8, stored at 50°C): ×; Residual Rate After 4 weeks ([3]; pH8, stored at 50°C): ×; Residual Rate After 2 weeks ([3]; pH9, stored at 50°C): ×; Residual Rate After 4 weeks ([3]; pH9, stored at 50°C): ×
